Source: ChEMBL document CHEMBL5131450, “Diaryl triazenes inhibit cytochrome P450 1A1 and 1B1 more strongly than aryl morpholino triazenes” (Bioorg Med Chem Lett, 2022)

Legend:
Assay type in all cases: ADME
[1] = biological target: T1, {'v': 'CYP1B1', 'o': 'p', 'q': 'Inhibition of CYP1B1 (unknown origin)'} (Homo sapiens, UniProt Q16678); test: Inhibition of CYP1B1 (unknown origin) assessed as remaining enzyme activity relative to control
T1 sequence (Q16678 whole entry): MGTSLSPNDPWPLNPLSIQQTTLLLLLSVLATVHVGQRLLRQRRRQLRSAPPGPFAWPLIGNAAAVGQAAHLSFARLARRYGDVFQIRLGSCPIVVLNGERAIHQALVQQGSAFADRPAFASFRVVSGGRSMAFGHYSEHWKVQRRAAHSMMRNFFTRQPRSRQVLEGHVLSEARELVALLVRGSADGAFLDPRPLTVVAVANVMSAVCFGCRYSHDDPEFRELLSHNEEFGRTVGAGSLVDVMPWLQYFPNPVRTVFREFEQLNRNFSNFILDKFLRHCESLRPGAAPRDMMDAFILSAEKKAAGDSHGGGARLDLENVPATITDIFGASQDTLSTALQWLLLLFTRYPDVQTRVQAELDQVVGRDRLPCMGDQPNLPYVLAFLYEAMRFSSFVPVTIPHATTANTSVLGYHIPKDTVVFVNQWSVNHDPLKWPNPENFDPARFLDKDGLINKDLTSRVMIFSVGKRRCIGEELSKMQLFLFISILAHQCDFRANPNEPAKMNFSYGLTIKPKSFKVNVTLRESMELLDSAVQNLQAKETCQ

[2] = biological target: T2, Cytochrome P450 1A1 (Homo sapiens, UniProt P04798); test: Inhibition of CYP1A1 (unknown origin)
T2 sequence (P04798 whole entry): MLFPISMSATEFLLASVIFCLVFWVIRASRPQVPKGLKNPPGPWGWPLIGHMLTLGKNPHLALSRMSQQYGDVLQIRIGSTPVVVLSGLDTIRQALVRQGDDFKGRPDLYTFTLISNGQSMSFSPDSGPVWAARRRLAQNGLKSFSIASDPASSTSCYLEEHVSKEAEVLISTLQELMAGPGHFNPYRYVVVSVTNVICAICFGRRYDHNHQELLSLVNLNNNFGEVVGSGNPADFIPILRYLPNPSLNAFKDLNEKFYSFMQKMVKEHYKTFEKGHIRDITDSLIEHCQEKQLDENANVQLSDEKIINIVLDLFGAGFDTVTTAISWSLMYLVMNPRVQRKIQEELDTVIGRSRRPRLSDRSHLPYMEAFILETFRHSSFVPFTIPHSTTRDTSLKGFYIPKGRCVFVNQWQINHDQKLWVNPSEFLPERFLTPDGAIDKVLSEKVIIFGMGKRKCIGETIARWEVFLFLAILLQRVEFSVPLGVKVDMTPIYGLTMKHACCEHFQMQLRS

[3] = biological target: T3, {'v': 'CYP1A1', 'o': 'p', 'q': 'Inhibition of CYP1A1 (unknown origin)'} (Homo sapiens, UniProt P04798); test: Inhibition of CYP1A1 (unknown origin) assessed as remaining enzyme activity relative to control
T3 sequence (P04798 whole entry): T2 sequence (P04798 whole entry)

[4] = biological target: T4, Cytochrome P450 1B1 (Homo sapiens, UniProt Q16678); test: Inhibition of CYP1B1 (unknown origin)
T4 sequence (Q16678 whole entry): T1 sequence (Q16678 whole entry)

| SMILES | activity [1] [%] | IC50 [2] [µM] | activity [3] [%] | IC50 [4] [µM] |
| --- | --- | --- | --- | --- |
| CC(=O)c1ccc(/N=N/Nc2ccc(C(C)=O)cc2)cc1 | 19 | 4 | 33 | 0.59 |
| Brc1ccc(/N=N/Nc2ccc(Br)cc2)cc1 | 9 | 3 | 21 | 0.051 |
| c1ccc(N=NNc2ccccc2)cc1 | 4 | 8 | 9 | 2 |
| N#Cc1ccc(/N=N/Nc2ccc(C#N)cc2)cc1 | 8 | – | 96 | 0.74 |
